Patent US10201546B2, “Quinolinyl modulators of RORγt” (Janssen Pharmaceutica NV, priority 2013, dated 2019)
pIC50, pKd: −log10 of the molar value. Counter-ions that a name gives are not always drawn. Like-named read-outs stand apart in the source and are kept apart here.

What was measured:
[1] = molecular target: human RORγt LBD fused to the DNA binding domain of the GAL4 protein (Homo sapiens (Human), UniProt P51449); test: RORγt (LBD) reporter assay in HEK293T cells; format: cell-based; parameters: RORγt (LBD) Reporter Assay, % inhibition: dose or concentration left out as unconfirmed; conditions: for inhibition at 6 µM: HEK-293T, read-out: RORγt (LBD) Reporter Assay, % inhibition @ 6 μM, @ 6 μM
Chain of human RORγt LBD fused to the DNA binding domain of the GAL4 protein (P51449 258-518): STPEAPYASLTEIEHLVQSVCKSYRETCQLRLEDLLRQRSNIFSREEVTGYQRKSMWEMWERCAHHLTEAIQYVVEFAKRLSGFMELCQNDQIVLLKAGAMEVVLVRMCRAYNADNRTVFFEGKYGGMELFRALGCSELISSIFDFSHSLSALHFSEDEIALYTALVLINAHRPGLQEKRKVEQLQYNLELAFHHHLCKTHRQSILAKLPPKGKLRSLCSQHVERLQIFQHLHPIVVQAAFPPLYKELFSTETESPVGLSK

[2] = molecular target: human RORγt ligand binding domain (RORγt LBD) (Homo sapiens (Human), UniProt P51449); test: RORγt ThermoFluor assay (thermal shift, binding affinity Kd)
Chain of human RORγt ligand binding domain (RORγt LBD) (P51449 other isoform, or with tags, fused parts or gaps): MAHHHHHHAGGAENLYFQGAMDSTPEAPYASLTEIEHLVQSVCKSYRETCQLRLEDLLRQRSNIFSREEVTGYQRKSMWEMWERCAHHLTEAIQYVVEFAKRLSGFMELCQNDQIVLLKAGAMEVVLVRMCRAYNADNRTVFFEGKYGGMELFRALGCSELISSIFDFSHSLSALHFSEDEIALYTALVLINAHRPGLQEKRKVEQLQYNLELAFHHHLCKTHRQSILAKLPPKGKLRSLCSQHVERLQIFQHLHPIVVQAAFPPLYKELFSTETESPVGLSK

[3] = read-out: ThermoFluor Assay, Kd
[4] = read-out: ThermoFluor ® Assay, Kd

| Structure (SMILES) | pIC50 [1] | inhibition at 6 µM [1] [%] | pKd [2, 3] | pKd [2, 4] | also measured |
| --- | --- | --- | --- | --- | --- |
| COc1nc2ccc(C(O)(c3cncn3C)C3CCN(S(C)(=O)=O)CC3)cc2c(Cl)c1CC1CCOCC1 (centres unmarked) [Example 6a, (4-Chloro-2-methoxy-3-((tetrahydro-2H-pyran-4-yl)methyl)quinolin-6-yl)(1-methyl-1H-imidazol-5-yl)(1-(methylsulfonyl)piperidin-4-yl)methanol] | < 5.22 | 26 | 6.66 | – | – |
| COc1nc2ccc(C(O)(c3ccc(C)nc3C)c3cnnn3C)cc2c(Cl)c1OCCS(C)(=O)=O (single isomer, unassigned) [Example 70b, {4-Chloro-2-methoxy-3-[2-(methylsulfonyl)ethoxy]quinolin-6-yl}(2,6-dimethylpyridin-3-yl)(1-methyl-1H-1,2,3-triazol-5-yl)methanol] | < 5.22 | 28 | 5.66 | – | – |
| COc1nc2ccc(C(O)(c3ccc(C)nc3C)c3cnnn3C)cc2c(Cl)c1OCCN1CCCC1 (single isomer, unassigned) [Example 67b, [4-Chloro-2-methoxy-3-(2-pyrrolidin-1-ylethoxy)quinolin-6-yl](2,6-dimethylpyridin-3-yl)(1-methyl-1H-1,2,3-triazol-5-yl)methanol] | < 5.22 | -37 | 6.00 | – | – |
| COc1nc2ccc(C(O)(c3ccc(C(F)(F)F)nc3)c3cncn3C)cc2c(Cl)c1CCC1CCN(C(C)=O)CC1 (centres unmarked) [Example 32, {3-[2-(1-Acetylpiperidin-4-yl)ethyl]-4-chloro-2-methoxyquinolin-6-yl}(1-methyl-1H-imidazol-5-yl)[6-(trifluoromethyl)pyridin-3-yl]methanol] | < 5.22 | 32 | 7.41 | – | – |
| CC(=O)N1CCC(C(O)(c2ccc3nc(C(F)(F)F)c(C(=O)N4CCCCC4)c(C(F)(F)F)c3c2)c2cncn2C)CC1 (centres unmarked) [Example 9, 1-(4-(Hydroxy(1-methyl-1H-imidazol-5-yl)(3-(piperidine-1-carbonyl)-2,4-bis(trifluoromethyl)quinolin-6-yl)methyl)piperidin-1-yl)ethanone] | < 5.22 | 16 | 5.09 | – | – |
| Cn1cncc1C(O)(c1ccc(C(F)(F)F)nc1)c1ccc2nc(N3CCC3)c(OCc3ccccc3)c(Cl)c2c1 (centres unmarked) [Example 31, [2-Azetidin-1-yl-3-(benzyloxy)-4-chloroquinolin-6-yl](1-methyl-1H-imidazol-5-yl)[6-(trifluoromethyl)pyridin-3-yl]methanol.TFA] | < 5.22 | -32 | 7.57 | – | – |
| COc1nc2ccc(C(O)(c3cnc(C)n3C)c3cnc(C)n3C)cc2c(Cl)c1OC1CCCN(C)C1 (single isomer, unassigned) [Example 51b, (4-Chloro-2-methoxy-3-{[1-methylpiperidin-3-yl]oxy}quinolin-6-yl)[bis(1,2-dimethyl-1H-imidazol-5-yl)]methanol] | – | – | 5.52 | – | – |
| COc1nc2ccc([C@](O)(c3ccccc3)C3CCN(C(C)=O)CC3)cc2c(Cl)c1CC1CCOCC1 [Example 4c] | < 5.22 | – | 7.28 | – | RORγt (LBD) Reporter Assay, % inhibition @ 6 μM [1]: −6% |
| COc1nc2ccc(C(O)(c3cnc(C)n3C)c3cnc(C)n3C)cc2c(Cl)c1OC1CCCN(C)C1 (single isomer, unassigned) [Example 51c, (4-Chloro-2-methoxy-3-{[1-methylpiperidin-3-yl]oxy}quinolin-6-yl)[bis(1,2-dimethyl-1H-imidazol-5-yl)]methanol] | < 5.22 | -4 | 5.30 | – | – |
| COc1nc2ccc(C(O)(c3ccc(C)nc3C)c3cnnn3C)cc2c(Cl)c1OCCS(C)(=O)=O (centres unmarked) [Example 70a, {4-Chloro-2-methoxy-3-[2-(methylsulfonyl)ethoxy]quinolin-6-yl}(2,6-dimethylpyridin-3-yl)(1-methyl-1H-1,2,3-triazol-5-yl)methanol] | < 5.22 | 36 | 5.48 | – | – |
| COc1nc2ccc(C(O)(c3cnc(C)n3C)c3cnc(C)n3C)cc2c(Cl)c1OCC1CCCN1C (centres unmarked) [Example 52, {4-Chloro-2-methoxy-3-[(1-methylpyrrolidin-2-yl)methoxy]quinolin-6-yl}[bis(1,2-dimethyl-1H-imidazol-5-yl)]methanol] | – | – | 5.54 | – | – |
| COc1nc2ccc(C(O)(c3ccc(C)nc3C)c3cnnn3C)cc2c(Cl)c1CC1CCS(=O)(=O)CC1 (single isomer, unassigned) [Example 2c, 4-((4-Chloro-6-((2,6-dimethylpyridin-3-yl)(hydroxy)(1-methyl-1H-1,2,3-triazol-5-yl)methyl)-2-methoxyquinolin-3-yl)methyl)tetrahydro-2H-thiopyran 1,1-dioxide] | – | – | – | – | pKd ([2]; ThermoFluor Assay, Kd): 6.96 |
| Cc1c(-c2ccc3c(cnn3C)c2)nc2ccc(C(O)(c3cccnc3)c3cccc(Cl)c3)cc2c1Cl (centres unmarked) [Example 24, [4-Chloro-3-methyl-2-(1-methyl-1H-indazol-5-yl)quinolin-6-yl](3-chlorophenyl)pyridin-3-ylmethanol] | < 5.22 | 29 | 5.70 | – | – |
| COc1nc2ccc(C(O)(c3ccccc3)C3CCN(C(C)=O)CC3)cc2c(Cl)c1CC1CCOCC1 (centres unmarked) [Example 4a, 1-(4-((4-Chloro-2-methoxy-3-((tetrahydro-2H-pyran-4-yl)methyl)quinolin-6-yl)(hydroxy)(phenyl)methyl)piperidin-1-yl)ethanone] | < 5.22 | 24 | 7.80 | – | – |
| COc1nc2ccc(C(O)(c3ccc(C(F)(F)F)nc3)c3cncn3C)cc2c(Cl)c1C1=CCN(C)CC1 (centres unmarked) [Example 33, [4-Chloro-2-methoxy-3-(1-methyl-1,2,3,6-tetrahydropyridin-4-yl)quinolin-6-yl](1-methyl-1H-imidazol-5-yl)[6-(trifluoromethyl)pyridin-3-yl]methanol.TFA] | < 5.22 | -32 | 5.32 | – | – |
| COc1nc2ccc(C(O)(c3ccc(C(F)(F)F)nc3)c3cncn3C)cc2c(Cl)c1OCc1cccnc1 (single isomer, unassigned) [Example 76b, [4-Chloro-2-methoxy-3-(pyridin-3-ylmethoxy)quinolin-6-yl](1-methyl-1H-imidazol-5-yl)[6-(trifluoromethyl)pyridin-3-yl]methanol] | < 5.22 | – | 5.92 | – | RORγt (LBD) Reporter Assay, % inhibition @ 6 μM [1]: −17% |

The next lines start with results.

| pIC50 [1] | inhibition at 6 µM [1] [%] | pKd [2, 3] | pKd [2, 4] | Structure (SMILES) | also measured |
| --- | --- | --- | --- | --- | --- |
| – | – | – | 6.22 | COc1nc2ccc(C(O)(c3ccc(C)nc3C)c3cnnn3C)cc2c(Cl)c1C(=O)NCC(F)(F)F (centres unmarked) [Example 152, 4-Chloro-6-[(2,6-dimethylpyridin-3-yl)(hydroxy)(1-methyl-1H-1,2,3-triazol-5-yl)methyl]-2-methoxy-N-(2,2,2-trifluoroethyl)quinoline-3-carboxamide] | – |
| – | – | – | 6.03 | COc1nc2ccc(C(O)(c3ccc(C)nc3C)c3cnnn3C)cc2c(Cl)c1C(=O)NCC1CC1 (centres unmarked) [Example 147, 4-Chloro-N-(cyclopropylmethyl)-6-[(2,6-dimethylpyridin-3-yl)(hydroxy)(1-methyl-1H-1,2,3-triazol-5-yl)methyl]-2-methoxyquinoline-3-carboxamide] | – |
| – | – | – | 8.51 | COc1nc2ccc(C(O)(c3ccc(C(F)(F)F)nc3)c3cncn3C)cc2c(C#N)c1CN1CCC(C(F)(F)F)CC1 (single isomer, unassigned) [Example 191c, 6-(Hydroxy(1-methyl-1H-imidazol-5-yl)(6-(trifluoromethyl)pyridin-3-yl)methyl)-2-methoxy-3-((4-(trifluoromethyl)piperidin-1-yl)methyl)quinoline-4-carbonitrile] | – |
| < 5.22 | – | 6.96 | – | COc1nc2ccc(C(O)(c3ccc(C(F)(F)F)nc3)c3cncn3C)cc2c(Cl)c1OCc1cccnc1 (single isomer, unassigned) [Example 76c, [4-Chloro-2-methoxy-3-(pyridin-3-ylmethoxy)quinolin-6-yl](1-methyl-1H-imidazol-5-yl)[6-(trifluoromethyl)pyridin-3-yl]methanol] | RORγt (LBD) Reporter Assay, % inhibition @ 6 μM [1]: −35% |
| – | – | – | 6.23 | COc1nc2ccc(C(O)(c3cnc(C)n3C)c3cnc(C)n3C)cc2c(Cl)c1CNC(=O)CCC(F)(F)F [Example 186, N-((6-(Bis(1,2-dimethyl-1H-imidazol-5-yl)(hydroxy)methyl)-4-chloro-2-methoxyquinolin-3-yl)methyl)-4,4,4-trifluorobutanamide] | – |
| – | – | – | 7.01 | COc1nc2ccc(C(O)(c3ccc(C(F)(F)F)nc3)c3cncn3C)cc2c(C#N)c1CN1CCC(C(F)(F)F)CC1 (single isomer, unassigned) [Example 191b, 6-(Hydroxy(1-methyl-1H-imidazol-5-yl)(6-(trifluoromethyl)pyridin-3-yl)methyl)-2-methoxy-3-((4-(trifluoromethyl)piperidin-1-yl)methyl)quinoline-4-carbonitrile] | – |
| < 5.22 | – | – | 5.47 | COc1nc2ccc(C(O)c3cnc(C)n3C)cc2c(Cl)c1OC(C)C (centres unmarked) [Example 156, (4-chloro-3-isopropoxy-2-methoxyquinolin-6-yl)(1,2-dimethyl-1H-imidazol-5-yl)methanol] | RORγt (LBD) Reporter Assay, % inhibition [1]: 34% |
| – | – | 6.44 | – | COc1nc2ccc(C(O)(c3ccc(C)nc3C)c3cnnn3C)cc2c(Cl)c1C(=O)N1CCC(C(F)(F)F)CC1 (centres unmarked) [Example 83, (4-Chloro-2-methoxy-3-{[4-(trifluoromethyl)piperidin-1-yl]carbonyl}quinolin-6-yl)(2,6-dimethylpyridin-3-yl)(1-methyl-1H-1,2,3-triazol-5-yl)methanol] | – |
| – | – | – | 5.77 | COc1nc2ccc(C(O)(c3ccc(C)nc3C)c3cnnn3C)cc2c(Cl)c1C(=O)N(C)C (centres unmarked) [Example 148, 4-Chloro-6-[(2,6-dimethylpyridin-3-yl)(hydroxy)(1-methyl-1H-1,2,3-triazol-5-yl)methyl]-2-methoxy-N,N-dimethylquinoline-3-carboxamide] | – |
| – | – | – | 5.52 | COc1nc2ccc(C(O)(c3ccc(C)nc3C)c3cnnn3C)cc2c(Cl)c1C(=O)N1CC(F)(F)C1 (centres unmarked) [Example 153, {4-Chloro-3-[(3,3-difluoroazetidin-1-yl)carbonyl]-2-methoxyquinolin-6-yl}(2,6-dimethylpyridin-3-yl)(1-methyl-1H-1,2,3-triazol-5-yl)methanol] | – |
